Measurements: patent publication US20240067632A1, “WEE1 Degrading Compounds and Uses Thereof” (Bristol-Myers Squibb Company, priority 2022, published 2024)
Like-named read-outs stand apart in the source and are kept apart here.

Legend:
WEE1 = target: T1, WEE1 (Homo sapiens, UniProt P30291+Q96SW2); assay: WEE1-ePL degradation assay (LentiX-WEE1-ePL-GSPT1-ND cells, InCELL Hunter luminescence, 4 h); assay type: cell-based; settings: 293T-LentiX WEE1-ePL cells; for DC50: read-out: 293T-LentiX WEE1-ePL Degradation 4 hr (EC50)
T1 construct: C-terminal ePL-tagged (DiscoverX, Fremont, CA) full-length WEE1 expression construct; expressed in transfected cells; host or cells: LentiX-HEK293T (Invitrogen), lentiviral transduction; co-expressing GSPT1-GN (G576N, lacking the first 158 amino acids)
Procedure, shortened: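 LentiX-HEK293T cells stably expressing C-terminally ePL-tagged full-length WEE1 were treated with compounds in a 10-point, 3-fold dilution series starting at 1 uM or 10 uM for 4 h at 37 °C. Remaining WEE1-ePL was detected by InCELL Hunter luminescence, and EC50, Ymin and Ymax came from a four-parameter logistic fit against DMSO control.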

MKN45 cells = assay: MKN45 cell proliferation assay (Cell-Titer-Glo, 120 h); assay type: cell-based; settings: for EC50: Homo sapiens, MKN-45, 120 h, Cell-Titer-Glo, read-out: MKN45 Cell Prolif. 120 hr (EC50); for MKN45 Cell Prolif. 120 hr (Ymin-Obs): minimal percent of DMSO control observed in the concentrations tested
Procedure, shortened: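 Cells seeded at 400/well onto pre-printed 10-point half-log dilutions (top 1 or 10 uM, 0.1% DMSO final), in triplicate, and grown 120 h at 37 C. Viability by Cell-Titer-Glo luminescence, blank-subtracted and normalised to DMSO; EC50 from four-parameter logistic fit, with observed minimal % of control recorded as Ymin-obs.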

[1] = lower limit of the fit (0 = luciferase inhibitor, Ymax = DMSO control)
[2] = lower limit of the fit (Ymin=0 luciferase inhibitor, Ymax DMSO control)

Question: How did the “293T-LentiX WEE1-ePL Degradation 4 hr (Ymin)” value (WEE1; [1]) turn out when `CN1CC[C@H](c2ccc3cc(CN4CC[C@H](Oc5ccc6c(c5)CN(C5CCC(=O)NC5=O)C6=O)C4)ccc3n2)C1` (stereo partly drawn) [3-(5-{[(3S)-1-({2-[(3S)-1-methylpyrrolidin-3-yl]quinolin-6-yl}methyl)pyrrolidin-3-yl]oxy}-1-oxo-2,3-dihydro-1H-isoindol-2-yl)piperidine-2,6-dione] was run?
Answer: Its value is 37.

Question: What about the DC50 (WEE1) of the same compound?
Answer: The DC50 was 67.5 nM.

Question: And the EC50 (MKN45 cells; growth inhibition)?
Answer: The EC50 was 59.7 nM.

Question: What about the “MKN45 Cell Prolif. 120 hr (Ymin-Obs)” value (MKN45 cells) of the same compound?
Answer: The value was 12.73.

Question: What does the source list for `O=C1CCC(N2Cc3cc(O[C@@H]4CN(Cc5ccc6nc([C@@H]7CCOC7)ccc6c5)C[C@@H]4F)ccc3C2=O)C(=O)N1` (stereo partly drawn) [3-(5-{[(3R,4S)-4-fluoro-1-({2-[(3S)-oxolan-3-yl]quinolin-6-yl}methyl)pyrrolidin-3-yl]oxy}-1-oxo-2,3-dihydro-1H-isoindol-2-yl)piperidine-2,6-dione]?
Answer: 293T-LentiX WEE1-ePL Degradation 4 hr (Ymin) (WEE1; [2]): 33.6; DC50 (WEE1): 5.69 nM; EC50 (MKN45 cells): 9.42 nM; MKN45 Cell Prolif. 120 hr (Ymin-Obs) (MKN45 cells): 10.88

Question: `O=C1CCC(N2Cc3ccc(O[C@H]4CCN(Cc5cc6ccccc6cn5)C4)cc3C2=O)C(=O)N1` (stereo partly drawn) [3-(6-{[(3S)-1-[(isoquinolin-3-yl)methyl]pyrrolidin-3-yl]oxy}-1-oxo-2,3-dihydro-1H-isoindol-2-yl)piperidine-2,6-dione] was tested. Which “293T-LentiX WEE1-ePL Degradation 4 hr (Ymin)” value (WEE1; [1]) did it give?
Answer: The value was 93.8.

Question: And the EC50 (MKN45 cells; growth inhibition)?
Answer: The EC50 was 0.399 nM.

Question: And the “MKN45 Cell Prolif. 120 hr (Ymin-Obs)” value (MKN45 cells)?
Answer: Its value is 82.45.

Question: What does the source list for `O=C1CCC(N2Cc3cc(O[C@H]4CCN(Cc5ccc6nc(N7CCOCC7)ncc6c5)C4)ccc3C2=O)C(=O)N1` (stereo partly drawn) [3-(5-{[(3S)-1-{[2-(morpholin-4-yl)quinazolin-6-yl]methyl}pyrrolidin-3-yl]oxy}-1-oxo-2,3-dihydro-1H-isoindol-2-yl)piperidine-2,6-dione]?
Answer: 293T-LentiX WEE1-ePL Degradation 4 hr (Ymin) (WEE1; [1]): 31.33; DC50 (WEE1): 7.2 nM; EC50 (MKN45 cells; growth inhibition): 16.1 nM; MKN45 Cell Prolif. 120 hr (Ymin-Obs) (MKN45 cells): 9.637

Question: Which “293T-LentiX WEE1-ePL Degradation 4 hr (Ymin)” value (WEE1; [1]) does the source give for `O=C1CCC(N2Cc3cc(O[C@H]4CCN(Cc5ccc6nc(N7C[C@H]8COC[C@H]8C7)ncc6c5)C4)ccc3C2=O)C(=O)N1` (stereo partly drawn) [3-(5-{[(3S)-1-({2-[(3aR,6aS)-hexahydro-1H-furo[3,4-c]pyrrol-5-yl]quinazolin-6-yl}methyl)pyrrolidin-3-yl]oxy}-1-oxo-2,3-dihydro-1H-isoindol-2-yl)piperidine-2,6-dione] here?
Answer: The value was 38.

Question: And the DC50 (WEE1)?
Answer: Its DC50 is 14 nM.

Question: What about the EC50 (MKN45 cells; growth inhibition) of the same compound?
Answer: The EC50 was 13 nM.

Question: What about the “MKN45 Cell Prolif. 120 hr (Ymin-Obs)” value (MKN45 cells) of the same compound?
Answer: The value was 12.43.

Question: How did the “293T-LentiX WEE1-ePL Degradation 4 hr (Ymin)” value (WEE1; [1]) turn out when `O=C1CCC(N2Cc3cc(O[C@H]4CCN(Cc5ccc6nc(N7C[C@@H]8C[C@H]7CO8)ccc6c5)C4)ccc3C2=O)C(=O)N1` (stereo partly drawn) [3-(5-{[(3S)-1-({2-[(1S,4S)-2-oxa-5-azabicyclo[2.2.1]heptan-5-yl]quinolin-6-yl}methyl)pyrrolidin-3-yl]oxy}-1-oxo-2,3-dihydro-1H-isoindol-2-yl)piperidine-2,6-dione] was run?
Answer: Its value is 34.

Question: And the DC50 (WEE1)?
Answer: Its DC50 is 2.98 nM.

Question: What about the EC50 (MKN45 cells; growth inhibition) of the same compound?
Answer: Its EC50 is 5.54 nM.

Question: And the “MKN45 Cell Prolif. 120 hr (Ymin-Obs)” value (MKN45 cells)?
Answer: The value was 8.09.

Question: `COC[C@@H]1CN(Cc2cc(F)c3nc([C@H]4CCOC(C)(C)C4)ccc3c2)C[C@H]1Oc1ccc2c(c1)CN([C@H]1CCC(=O)NC1=O)C2=O` [(3S)-3-(5-{[(3S,4S)-1-({2-[(4S)-2,2-dimethyloxan-4-yl]-8-fluoroquinolin-6-yl}methyl)-4-(methoxymethyl)pyrrolidin-3-yl]oxy}-1-oxo-2,3-dihydro-1H-isoindol-2-yl)piperidine-2,6-dione] was tested. Which “293T-LentiX WEE1-ePL Degradation 4 hr (Ymin)” value (WEE1; [2]) did it give?
Answer: The value was 25.19.

Question: And the DC50 (WEE1)?
Answer: Its DC50 is 1.2 nM.

Question: And the EC50 (MKN45 cells)?
Answer: The EC50 was 0.638 nM.

Question: What about the “MKN45 Cell Prolif. 120 hr (Ymin-Obs)” value (MKN45 cells) of the same compound?
Answer: Its value is 8.947.

Question: For `O=C1CCC(N2Cc3cc(O[C@H]4CCN(Cc5cc6ncccc6cn5)C4)ccc3C2=O)C(=O)N1` (stereo partly drawn) [3-(5-{[(3S)-1-[(1,6-naphthyridin-7-yl)methyl]pyrrolidin-3-yl]oxy}-1-oxo-2,3-dihydro-1H-isoindol-2-yl)piperidine-2,6-dione], which “293T-LentiX WEE1-ePL Degradation 4 hr (Ymin)” value (WEE1; [1]) is on record?
Answer: Its value is 67.53.

Question: What about the DC50 (WEE1) of the same compound?
Answer: Its DC50 is 122 nM.

Question: What about the EC50 (MKN45 cells; growth inhibition) of the same compound?
Answer: The EC50 was 960 nM.

Question: And the “MKN45 Cell Prolif. 120 hr (Ymin-Obs)” value (MKN45 cells)?
Answer: Its value is 84.48.

Question: For `COC[C@@H]1CN(Cc2ccc3nc(N4CCOCC4)ncc3c2)C[C@H]1Oc1ccc2c(c1)CN([C@H]1CCC(=O)NC1=O)C2=O` [(3S)-3-(5-{[(3S,4S)-4-(methoxymethyl)-1-{[2-(morpholin-4-yl)quinazolin-6-yl]methyl}pyrrolidin-3-yl]oxy}-1-oxo-2,3-dihydro-1H-isoindol-2-yl)piperidine-2,6-dione], which “293T-LentiX WEE1-ePL Degradation 4 hr (Ymin)” value (WEE1; [2]) is on record?
Answer: Its value is 25.61.

Question: And the DC50 (WEE1)?
Answer: The DC50 was 5.4 nM.

Question: And the EC50 (MKN45 cells)?
Answer: Its EC50 is 1.64 nM.

Question: And the “MKN45 Cell Prolif. 120 hr (Ymin-Obs)” value (MKN45 cells)?
Answer: Its value is 8.574.

Question: How did the “293T-LentiX WEE1-ePL Degradation 4 hr (Ymin)” value (WEE1; [1]) turn out when `CNC1(c2ccc3cc(CN4CC[C@H](Oc5ccc6c(c5)CN(C5CCC(=O)NC5=O)C6=O)C4)ncc3c2)COC1` (stereo partly drawn) [3-(5-{[(3S)-1-({7-[3-(methylamino)oxetan-3-yl]isoquinolin-3-yl}methyl)pyrrolidin-3-yl]oxy}-1-oxo-2,3-dihydro-1H-isoindol-2-yl)piperidine-2,6-dione] was run?
Answer: Its value is 33.

Question: What about the DC50 (WEE1) of the same compound?
Answer: The DC50 was 96.7 nM.

Question: What about the EC50 (MKN45 cells; growth inhibition) of the same compound?
Answer: Its EC50 is 56.4 nM.

Question: What about the “MKN45 Cell Prolif. 120 hr (Ymin-Obs)” value (MKN45 cells) of the same compound?
Answer: Its value is 7.77.

Question: Which results are given for `O=C1CCC(N2Cc3cc(O[C@H]4CCN(Cc5cc(-c6cccc(N7CCOCC7)c6)ccn5)C4)ccc3C2=O)C(=O)N1` (stereo partly drawn) [3-(5-{[(3S)-1-({4-[3-(morpholin-4-yl)phenyl]pyridin-2-yl}methyl)pyrrolidin-3-yl]oxy}-1-oxo-2,3-dihydro-1H-isoindol-2-yl)piperidine-2,6-dione]?
Answer: 293T-LentiX WEE1-ePL Degradation 4 hr (Ymin) (WEE1; [1]): 28; DC50 (WEE1): 2.32 nM; EC50 (MKN45 cells; growth inhibition): 7.33 nM; MKN45 Cell Prolif. 120 hr (Ymin-Obs) (MKN45 cells): 4.54

Question: Which “293T-LentiX WEE1-ePL Degradation 4 hr (Ymin)” value (WEE1; [1]) does the source give for `CO[C@H]1CC[C@@H](c2ccc3cc(CN4CC[C@H](Oc5ccc6c(c5)CN(C5CCC(=O)NC5=O)C6=O)C4)ccc3n2)CC1` (stereo partly drawn) [3-(1-oxo-5-{[(3S)-1-({2-[(1s,4s)-4-methoxycyclohexyl]quinolin-6-yl}methyl)pyrrolidin-3-yl]oxy}-2,3-dihydro-1H-isoindol-2-yl)piperidine-2,6-dione] here?
Answer: The value was 30.

Question: And the DC50 (WEE1)?
Answer: The DC50 was 1.12 nM.

Question: What about the EC50 (MKN45 cells; growth inhibition) of the same compound?
Answer: The EC50 was 1.14 nM.

Question: What about the “MKN45 Cell Prolif. 120 hr (Ymin-Obs)” value (MKN45 cells) of the same compound?
Answer: The value was 9.583.

Question: With `CC1(C)C[C@@H](c2ccc3cc(CN4CC[C@H](Oc5ccc6c(c5)CN([C@H]5CCC(=O)NC5=O)C6=O)C4)ncc3c2)CCO1` [(3S)-3-(5-{[(3S)-1-({7-[(4S)-2,2-dimethyloxan-4-yl]isoquinolin-3-yl}methyl)pyrrolidin-3-yl]oxy}-1-oxo-2,3-dihydro-1H-isoindol-2-yl)piperidine-2,6-dione] as the compound, how does the “293T-LentiX WEE1-ePL Degradation 4 hr (Ymin)” value (WEE1; [2]) read?
Answer: The value was 26.79.

Question: And the DC50 (WEE1)?
Answer: The DC50 was 1.19 nM.

Question: And the EC50 (MKN45 cells)?
Answer: The EC50 was 1.11 nM.

Question: What about the “MKN45 Cell Prolif. 120 hr (Ymin-Obs)” value (MKN45 cells) of the same compound?
Answer: The value was 9.866.

Question: `N#Cc1cnc2ccc(CN3CC[C@H](Oc4ccc5c(c4)CN(C4CCC(=O)NC4=O)C5=O)C3)cc2c1` (stereo partly drawn) [6-{[(3S)-3-{[2-(2,6-dioxopiperidin-3-yl)-1-oxo-2,3-dihydro-1H-isoindol-5-yl]oxy}pyrrolidin-1-yl]methyl}quinoline-3-carbonitrile] was tested. Which “293T-LentiX WEE1-ePL Degradation 4 hr (Ymin)” value (WEE1; [1]) did it give?
Answer: The value was 33.

Question: What about the DC50 (WEE1) of the same compound?
Answer: Its DC50 is 4.18 nM.

Question: What about the EC50 (MKN45 cells; growth inhibition) of the same compound?
Answer: The EC50 was 44 nM.

Question: And the “MKN45 Cell Prolif. 120 hr (Ymin-Obs)” value (MKN45 cells)?
Answer: Its value is 12.18.
